Data on six compounds can be found in patent US20070249519A1, “METHODS FOR THE UPREGULATION OF GLUT4 VIA MODULATION OF PPAR DELTA IN ADIPOSE TISSUE AND FOR THE TREATMENT OF DISEASE” (KALYPSYS, INC., priority 2006, published 2007).

A value given as a limit tells only on which side of the number the result lay.

One data set relates to GLUT4 translocation. Particulars: ZDF ob/ob and DIO C57BL/6 mice; cited from earlier work.
The target of the next data set is T1, PPAR alpha (Homo sapiens, UniProt Q07869).
T1 construct: expressed in transfected cells; host or cells: CV-1 cells
T1 sequence (Q07869 239-466 limits assumed): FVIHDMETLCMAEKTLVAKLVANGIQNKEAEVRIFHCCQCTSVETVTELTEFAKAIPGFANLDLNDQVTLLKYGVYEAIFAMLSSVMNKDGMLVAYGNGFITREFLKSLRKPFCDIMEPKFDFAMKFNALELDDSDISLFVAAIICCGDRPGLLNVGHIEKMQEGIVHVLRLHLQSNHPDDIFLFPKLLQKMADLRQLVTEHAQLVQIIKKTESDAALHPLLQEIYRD
Particulars: GAL4 chimera, CV-1 cells, luciferase; cited from earlier work.

A further data set concerns the target T2, PPAR delta (Homo sapiens, UniProt Q03181).
T2 construct: expressed in transfected cells; host or cells: CV-1 cells
T2 sequence (Q03181 211-439 limits assumed): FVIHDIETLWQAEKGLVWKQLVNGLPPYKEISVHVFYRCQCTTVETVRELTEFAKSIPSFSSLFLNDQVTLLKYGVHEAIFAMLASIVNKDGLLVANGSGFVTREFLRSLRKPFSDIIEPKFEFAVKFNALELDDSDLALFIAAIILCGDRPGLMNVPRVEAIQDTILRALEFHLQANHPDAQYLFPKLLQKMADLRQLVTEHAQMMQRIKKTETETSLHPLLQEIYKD
Particulars: GAL4 chimera, CV-1 cells, luciferase; cited from earlier work.

The next data set has as its target T3, PPAR gamma (Homo sapiens, UniProt P37231).
T3 construct: expressed in transfected cells; host or cells: CV-1 cells
T3 sequence (P37231 238-503 limits assumed): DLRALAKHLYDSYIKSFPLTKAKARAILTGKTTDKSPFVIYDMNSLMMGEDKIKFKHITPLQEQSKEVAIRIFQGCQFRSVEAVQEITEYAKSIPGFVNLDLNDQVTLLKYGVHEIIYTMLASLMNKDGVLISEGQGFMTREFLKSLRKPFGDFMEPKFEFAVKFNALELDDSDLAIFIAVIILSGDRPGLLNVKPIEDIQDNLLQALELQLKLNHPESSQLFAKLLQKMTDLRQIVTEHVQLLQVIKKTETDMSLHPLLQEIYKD
Particulars: GAL4 chimera, CV-1 cells, luciferase; cited from earlier work.

A short description of data set [1]: Insulin tolerance testing (ITT), DIO model in mice. Particulars: NC and HFD cohorts, 3 and 9 mg/kg. The data set is classed as in vivo, C57B1/6j mice. The text has this:
(§1) Metabolic syndrome in humans is characterized by abdominal obesity, high triglycerides, impaired fasting glucose and hyperinsulinemia. In the DIO model, mice are fed high fat diet (HFD, Research diet D12492, Research Diet, N.J.) diet (58% lard) for the entire period of the study. Compared to normal chow (NC, Harlan-Tekland #8604, WI) fed animals the HF fed mice develop several features of metabolic syndrome such as hypertriglyceridemia, hyperinsulinemia and mild hyperglycemia, as early as two weeks, on this diet. […] Additionally, GLUT4 expression is down regulated in HF-fed C57B1/6j mice after 4 weeks. […]
(§2) C57B1/6j mice (n=5-6 for each group) were fed ad libitum with either the HFD (58% fat) or NC (5%) diet for 4 weeks prior to start of experiments, and throughout the course of each experiment (Days −27 to Day 60). […] Plasma Insulin, and glucose levels under fasting and postprandial (PP) conditions were measured using the Ultrasensitive Mouse Insulin ELISA kit (Mercodia) and glucometer (Accu-Check Compact, Roche) respectively. […] Tissues were collected at sacrifice at 3-4 hours post dosing with compound 1 or compound 2 in a fed state and GLUT4 mRNA expression was assessed using GLUT4 specific probes and branched DNA (bDNA) analyses (Epicenter Biotechnologies).

For data set [2], the system named is GLUT4 mRNA expression. Put plainly: GLUT4 mRNA expression in muscle tissue, DIO model in mice. The data set is classed as in vivo, C57B1/6j mice. Particulars: 14 weeks of treatment, 3 or 9 mg/kg, NC or HFD, vs vehicle.
From the text: as §1, §2

The nature of data set [3]: Glucose tolerance testing (GTT), DIO model in mice. The format is in vivo, C57B1/6j mice. The text has this: Metabolic syndrome in humans is characterized by abdominal obesity, high triglycerides, impaired fasting glucose and hyperinsulinemia. In the DIO model, mice are fed high fat diet (HFD, Research diet D12492, Research Diet, N.J.) diet (58% lard) for the entire period of the study. Compared to normal chow (NC, Harlan-Tekland #8604, WI) fed animals the HF fed mice develop several features of metabolic syndrome such as hypertriglyceridemia, hyperinsulinemia and mild hyperglycemia, as early as two weeks, on this diet. […] Additionally, GLUT4 expression is down regulated in HF-fed C57B1/6j mice after 4 weeks. This model was used to evaluate the pharmacological effects of a Compound 1 and Compound 2 in mitigating several features of HFD induced metabolic syndrome in rodents.
(§3) C57B1/6j mice (n=5-6 for each group) were fed ad libitum with either the HFD (58% fat) or NC (5%) diet for 4 weeks prior to start of experiments, and throughout the course of each experiment (Days −27 to Day 60). Starting on Day 1, mice were dosed BID with either 3 mg/kg Compound 1+vehicle, 9 mg/kg Compound 1+vehicle, 3 mg/kg Compound 2+vehicle, or vehicle alone, for the entire period of the study (day 0-60). Plasma Insulin, and glucose levels under fasting and postprandial (PP) conditions were measured using the Ultrasensitive Mouse Insulin ELISA kit (Mercodia) and glucometer (Accu-Check Compact, Roche) respectively. Appropriate dilutions were made in each case to ensure that the samples remained in the linear range of the standard curve. Animals were sacrificed and levels of Compound 1 and Compound 2 in adipose and muscle tissue were assayed using LC/Mass Spec. Tissues were collected at sacrifice at 3-4 hours post dosing with compound 1 or compound 2 in a fed state and GLUT4 mRNA expression was assessed using GLUT4 specific probes and branched DNA (bDNA) analyses (Epicenter Biotechnologies).

Data set [4] can be described thus: Compound level in adipose tissue by LC/Mass Spec, DIO model in mice. The data set is classed as in vivo, C57B1/6j mice. Particulars: 8 weeks of treatment, 3 or 9 mg/kg/d Compound 1 vs 3 mg/kg/day Compound 2. The protocol: as §3
For data set [5], the system named is GLUT4 mRNA expression. The data set can be described thus: GLUT4 mRNA expression in adipose tissue, DIO model in mice. The data set is classed as in vivo, C57B1/6j mice. Particulars: 3 or 9 mg/kg.
From the text: as §1, §2

For a further data set, the system named is GLUT4. Particulars: in vivo; cited from earlier work.
The conditions of data set [6]: in vivo; cited from earlier work.

For `CC(=O)NCCOC(=O)[C@H](Oc1cccc(C(F)(F)F)c1)c1ccc(Cl)cc1` [MBX-102], the “insulin sensitivity and GLUT4 translocation in adipose and muscular tissue” value in the data set on GLUT4 translocation was “enhanced insulin sensitivity and GLUT4 translocation”.

The term EC50 denotes the concentration at which the effect is half-maximal. `C[C@@H]1CN(Cc2ccc(OC(F)(F)F)cc2)C[C@H](C)N1S(=O)(=O)c1cccc2c1C[C@@H](C(=O)O)C2` [Compound 3A, (S)-4-[cis-2,6-Dimethyl-4-(4-trifluoromethoxy-benzyl)-piperazine-1-sulfonyl]-indan-2-carboxylic acid]: the 50% effective concentration (EC50) at PPAR alpha was greater than 100 µM; on PPAR delta, less than 5 µM; at PPAR gamma, 5 to 100 µM.

As to `C[C@@H]1CN(c2ccc(OC(F)(F)F)cc2)C[C@H](C)N1S(=O)(=O)c1cccc2c1CC(C(=O)O)C2` (mixture of isomers) [Compound 1, 4-[cis-2,6-Dimethyl-4-(4-trifluoromethoxy-phenyl)-piperazine-1-sulfonyl]-indan-2-carboxylic acid], the “plasma glucose during ITT (FIGS. 9 and 10)” value in data set [1] was “attenuated plasma glucose output”. Moreover, the “GLUT4 mRNA expression in murine muscle tissue (FIG. 1)” value with GLUT4 mRNA expression [2] was “no significant increase”. The 50% effective concentration (EC50) on PPAR alpha is greater than 100 µM; at PPAR delta, less than 5 µM; at PPAR gamma, greater than 100 µM. Further, in [3] (HFD cohort, 3 and 9 mg/kg), the “plasma glucose during GTT, effect by dose (FIG. 6)” value is listed as “an effect was seen at both doses”. Moreover, in [3] (NC and HFD cohorts), the “plasma glucose during GTT (FIGS. 5 and 6)” value is listed as “increased glucose disposal”. Besides, in [3] (NC and HFD cohorts), the “plasma insulin during GTT (FIGS. 7 and 8)” value is “decreased insulin levels”. Further, the “uptake (concentration) in murine adipose tissue (FIG. 4)” value in data set [4] was “preferentially uptaken over Compound 2”. The “GLUT4 mRNA expression in murine adipose tissue (FIG. 3)” value in the data set with GLUT4 mRNA expression [5] (8 weeks of treatment, HFD cohort) was “upregulated”. The “GLUT4 mRNA expression in murine adipose tissue (FIG. 2)” value in the data set with GLUT4 mRNA expression [5] (14 days of treatment, HFD fed mice) is on record as “normalized expression of GLUT-4”.

For `C[C@@H]1CN(Cc2ccc(OC(F)(F)F)cc2)C[C@H](C)N1S(=O)(=O)c1cccc2c1CC(C(=O)O)C2` (mixture of isomers) [Compound 3, 4-[cis-2,6-Dimethyl-4-(4-trifluoromethoxy-benzyl)-piperazine-1-sulfonyl]-indan-2-carboxylic acid], the EC50 on PPAR alpha is 5 to 100 µM; on PPAR delta, less than 5 µM; on PPAR gamma, 5 to 100 µM.

For the compound `Cc1cc(SCc2sc(-c3ccc(C(F)(F)F)cc3)nc2C)ccc1OCC(=O)O` [Compound 2, {2-Methyl-4-[4-methyl-2-(4-trifluoromethyl-phenyl)-thiazol-5-ylmethylsulfanyl]-phenoxy}-acetic acid], in the data set with GLUT4, the “expression of GLUT4 in rat skeletal muscle” value was “increased expression of GLUT4”. For the same compound, the tissue partitioning result in data set [6] is listed as “preferentially partitions into muscular tissue”.

`C[C@@H]1CN(c2ccc(OC(F)(F)F)cc2)C[C@H](C)N1S(=O)(=O)c1cccc2c1C[C@@H](C(=O)O)C2` [Compound 1A, (S)-4-[cis-2,6-Dimethyl-4-(4-trifluoromethoxy-phenyl)-piperazine-1-sulfonyl]-indan-2-carboxylic acid]: the results for the EC50 on PPAR alpha, at PPAR delta and at PPAR gamma were greater than 100 µM, less than 5 µM and greater than 100 µM, respectively.
